Assay results: US9682058B2, “Method of treating viral infections by administration of ethyl mercury or thiol derivative thereof” (BEECH TREE LABS, INC., priority 2010, dated 2017)
Where “and” joins values, the source holds several entries; their conditions need not be identical. Equal entries are not always repeated. Where two headings read alike, the source gives them in different places.

Experiments:
herpes virus = details: cited from earlier work
herpes viruses = details: cited from earlier work
HSV [1] = details: Vero cells, 40 ng/ml
Experimental: Green Monkey Kidney (Vero) cells were treated with thimerosal (40 ng/ml) at various time points (12 hours, 4 hours, 1 hour, and 30 minutes) prior to and at the time of HSV infection. The number of plaques formed on day 6 post-infection was used to measure the effectiveness of thimerosal in preventing HSV infections.

HSV [2] = details: ARPE-19 cells, media of PBMCs incubated with 40 ng/ml thimerosal, overlaid prior to HSV infection
Experimental: PBMCs were incubated with 40 ng/ml thimerosal for a minimum of 6 hours and then were overlaid in ARPE-19 cells at various time points (12 hours, 4 hours, 2 hours, 1 hour, 30 minutes and 10 minutes) prior to HSV infection of the ARPE-19 cells. ARPE-19 cells were not continuously treated with thimerosal. ARPE-19 cells receiving thimerosal treatment with PBMC media was used as a control. The number of plaques formed on day 6 post-infection was used to measure the effectiveness of thimerosal in preventing HSV infections. The number of plaques was normalized to the number of plaques in the control.

HSV [3] = details: ARPE-19 cells, 40 ng/ml, continuous treatment before HSV infection, depending on the treatment time point
[4] = From the text: A parent shared a drink with their child. Later that day the child asked their parent, who is an RN, to check the child's glands as they felt swollen and their throat hurt.
porcine oocytes = details: cited from earlier work
[5] = tested on: molluscum contagiosum, a poxvirus infection; details: several children, one drop (0.05 cc) every 15 minutes for an hour, then hourly; six times daily on days 2 and 3
adenovirus = details: person, one drop (0.05 cc) every 15 minutes for an hour, then every hour until bedtime
Experimental: A person with symptoms of an adenovirus infection took one drop of thimerosal (in a dose of 0.05 cc) every 15 minutes for an hour, and then one drop every hour until bedtime.

BK virus [6] = tested on: BK virus
common cold = tested on: common cold
Experimental: A fifty-three old person with classic symptoms of the common cold used one drop of thimerosal (in a dose of 0.05 cc) every hour for one day.
The child of the person in Example 4 was treated with thimerosal for the common cold on several occasions. The child experienced symptoms for 5-7 days without treatment, which was reduced to 1-3 days when treated with thimerosal.

laryngeal papillomas = details: child, one drop (0.05 cc) every 15 minutes for an hour, then hourly; six times daily on days 2 and 3
Experimental: A child suffering from laryngeal papillomas spreading to the soft palate was treated with one drop of thimerosal (in a dose of 0.05 cc) every 15 minutes for an hour and then one drop every hour until bedtime. Thimerosal was administered in one drop every six times daily on days 2 and 3 and then as needed on subsequent days.

BK virus [7] = tested on: BK virus; remark: listed apart in the source
Vero cells [8] = tested on: Vero cells
Vero cells [9] = details: thimerosal doses tested (40 ng or 80 ng in 100 μl media)
Experimental: Vero cells were plated to a density of 70% confluency in 96-well dishes at a concentration of 75,000 cells/well). Cells were pretreated with either 40 ng or 80 ng thimerosal in 100 μl media for either 1 hour, 2 hours, 3 hours, 4 hours or 16 hours prior to infection.
After 1 hour at 37° C., virus was removed and cells were washed with unsupplemented MEM to remove unbound virus. The cells were then fed 100 μl/well complete media and stained for Tad (BK virus) or V-ag (JC virus) and scored via direct immunofluorescence.

HSV [10] = details: Vero cells, 40 ng/ml; remark: listed apart in the source
Experimental: Green Monkey Kidney (Vero) cells were treated with thimerosal (40 ng/ml) at various time points (30 minutes, 1 hour, 2 hours, 3, hours, 4 hours, 6 hours and 8 hours) after HSV infection. The number of plaques formed on day 6 post-infection was used to measure the effectiveness of thimerosal in preventing HSV infections. The number of plaques was normalized to the number of plaques in the control.

[11] = treatment at the time of infection

In the case of O=C(O)c1ccccc1SSc1ccccc1C(=O)O [dithiodibenzoic acid], the “antiviral activity in vivo” value (herpes virus) is given as “do not provide antiviral activity in vivo” and the “anti-herpes virus activity in vitro” value (herpes viruses) is given as “indicated anti-herpes virus activity in vitro”.

With C[CH2][Hg][S]c1ccccc1C(=O)[O-].[Na+] [thimerosal] the “infectivity of the JC virus” value (JC virus) was “did not appear to inhibit infectivity”, the “number of plaques formed on day 6 post-infection” value (from here on “number of plaques formed”) (HSV [1]; prophylactic therapy (12 hours, 4 hours, 1 hour, 30 minutes prior to HSV infection)) was “significant decrease in the number of plaques” and the “number of plaques formed” value (HSV [1]; treatment 1 hour prior to HSV infection) was “highest reduction in the plaque number”. The “number of plaques formed” value (HSV [1]; [11]) was “did not reduce the number of plaques”, the “Fold changes (vs. Control)” value (POLR2A) was −1.84 and the “antiviral activity (plaques day 6) versus thimerosal alone” value (HSV [2]) was “stronger antiviral activity”. The “inhibition of the activity of HSV (plaques, percent of control)” value (HSV [3]) was “up to 55%”, the “symptoms (swollen glands, sore throat)” value ([4]; child, one drop (0.05 cc) at a two hour interval) was “symptoms were resolved” and the “development of symptoms after prophylactic dosing” value ([4]; parent, dosed as a prophylactic measure) was “did not develop any symptoms”. For the same compound, the oocyte activation (porcine oocytes; 10 minute exposure to 200 μM thimerosal followed by 30 minute incubation in 8 mM DTT) was “induced complete activation of porcine oocytes”, the oocyte cell-cycle effect (porcine oocytes; thimerosal treatment alone) was “arrests oocytes in metaphase” and the “Fold changes (vs. Control)” value (TUBA4A) was 1.96 and 2 and 1.95. For the same compound, the “treatment outcome of molluscum contagiosum” value [5] was “successfully treated”, the “symptoms of an adenovirus infection” value (adenovirus) was “significantly reduced and were gone the next day” and the “infectivity of BK virus” value (BK virus [6]) was “reduction of the infectivity of the virus”. The “reduction of infectivity of BK virus” value (BK virus [6]) was “approximately 30%”, the “anti-herpes virus activity in vitro” value (herpes viruses) was “demonstrate activity against herpes viruses” and the viral propagation (herpes viruses; thimerosal mixed in a test tube with herpes virus, subsequently introduced into susceptible cells) was “viral propagation is not inhibited”. For the same compound, the “Fold changes (vs. Control)” value (TUBB4) was 2.13 and 2.12, the “Fold changes (vs. Control)” value (LAT-SPNS1) was 1.87 and the “Fold changes (vs. Control)” value (TUBB4Q) was 1.85. For the same compound, the “Fold changes (vs. Control)” value (SP1) was 1.95 and 2.04 and 2, the “duration of common cold symptoms when treated” value (common cold; child, several occasions, 5-7 days without treatment) was 1 to 3 days and the “symptoms of the common cold” value (common cold; fifty-three old male, one drop (0.05 cc) every hour for one day) was “resolved by the next day”. For the same compound, the “resolution of the symptoms of laryngeal papillomas” value (laryngeal papillomas) was “complete in five days”, the “infectivity of BK virus” value (BK virus [7]) was “reduction of the infectivity of the virus” and the toxicity to cells (Vero cells [8]) was “appeared to be toxic”. The toxicity to cells (Vero cells [9]) was “did not appear to be toxic”, the “number of plaques formed” value (HSV [10]; all other post-infection time points (30 minutes, 4, 6, 8 hours)) was “did not significantly reduce the number of plaques” and the “number of plaques formed” value (HSV [10]; post-infection treatment from 1-3 hours) was “significant reduction in the plaque numbers”. For the same compound, the “number of plaques formed” value (HSV [10]; [11]) was “did not change the number of plaques” and the “Fold changes (vs. Control)” value (TUBE1) was 1.95 and 2.03 and 1.98.

In the case of O=C(O)c1ccccc1S [thiosalicylic acid], the “antiviral activity in vivo” value (herpes virus) is listed as “do not provide antiviral activity in vivo”.
